Laboratory results reported in patent US7893055B2, “HIV integrase inhibitors” (priority 2006, dated 2011).

Columns and labels:
HIV-integrase = target: T1, HIV-integrase (Human immunodeficiency virus type 1 group M subtype B, UniProt P12497); assay: HIV-Integrase Inhibition Activity (SPA strand transfer assay); assay type: biochemical; details: recombinant integrase, SPA beads, P33 labeled target DNA; read-out: Activity (IC50 class, HIV-integrase inhibition)
T1 construct: Recombinant integrase (0.26 ng) was incubated with the beads
Experimental: HIV-Integrase InhibitionActivity. To evaluate in-vitro activity against HIV-integrase, 5 pmole of biotin labeled substrate DNA was bound to 100 μg of Streptavidin coated PVT SPA beads (Amersham Pharmacia Biotech). Recombinant integrase (0.26 ng) was incubated with the beads for 90 min at 37° C. Unbound enzyme was removed by washing the complex followed by addition of inhibitors and 0.1 fmol of P33 labeled target DNA. The reaction was stopped by adding EDTA to a final concentration of 10 mM. Samples were counted in TopCountNXT (Packard) and the CPM was used as a measure of integration. The reaction condition was as described in A. Engelman and R. Craigie, J. Virol. 69, 5908-5911 (1995). The sequences of substrate and target DNA were described in Nucleic Acid Research 22, 1121-1122 (1994). Activity equal to A refers to a compound having IC50=0.002 to 0.10 μM while B and C denote compounds having IC50=0.1 to 1.0 μM and IC50≧1.0 μM respectively.

[1] = tested on: recombinant NL-Rluc virus; assay: Inhibition of HIV replication (NL-Rluc virus, luciferase); assay type: cell-based; details: NL-Rluc pseudotype virus; serum condition of tabulated values not stated (10% FBS, 15 mg/ml HSA/10% FBS or 40% human serum/5% FBS); read-out: Activity (EC50 class, inhibition of HIV replication)

Compound | IC50 (HIV-integrase) | melting point | EC50 [1]
Cc1ncc(CNC(=O)c2nc3n(c(=O)c2O)CCOC3(C)C)s1 [Example 85, 3-Hydroxy-9,9-dimethyl-N-((2-methylthiazol-5-yl)methyl)-4-oxo-4,6,7,9-tetrahydropyrimido[2,1-c][1,4]oxazine-2-carboxamide] | 2 to 100 nM | 245 °C | –
Pyrimido[2,1-c][1,4]oxazine-2- carboxamide, 4,6,7,9-tetrahydro-3- hydroxy-9,9-dimethyl-4-oxo-N- [(2,3,6,7-tetrahydro-1,3,7- trimethyl-2,6-dioxo-1H-purin-8- yl)methyl]- [Example 60] | ≥ 1000 nM | – | –
Pyrimido[2,1-c][1,4]oxazine-2- carboxamide, 4,6,7,9-tetrahydro-3- hydroxy-9,9-dimethyl-4-oxo-N-[2- (2-thienyl)ethyl]- [Example 53] | 100 to 1000 nM | – | –
Pyrimido[2,1-c][1,4]oxazine-2- carboxamide, 4,6,7,9-tetrahydro-3- hydroxy-9,9-dimethyl-N-[2-(5- methyl-1H-indol-3-yl)ethyl]-4-oxo- [Example 58] | 100 to 1000 nM | – | –
Pyrimido[2,1-c][1,4]oxazine-2- carboxamide, 4,6,7,9-tetrahydro-3- hydroxy-9,9-dimethyl-N-[(1- methyl-1H-pyrazol-3-yl)methyl]-4- oxo- [Example 72] | 2 to 100 nM | – | 100 to 1000 nM
Pyrimido[2,1-c][1,4]oxazine-2- carboxamide, 4,6,7,9-tetrahydro-3- hydroxy-9,9-dimethyl-N-[(1- methyl-1H-pyrrol-2-yl)methyl]-4- oxo [Example 47] | 100 to 1000 nM | – | –
Pyrimido[2,1-c][1,4]oxazine-2- carboxamide, 4,6,7,9-tetrahydro-3- hydroxy-9,9-dimethyl-N-[(4- methyl-2-phenyl-5- thiazolyl)methyl]-4-oxo- [Example 74] | ≥ 1000 nM | – | –
Pyrimido[2,1-c][1,4]oxazine-2- carboxamide, 4,6,7,9-tetrahydro-3- hydroxy-9,9-dimethyl-N-[(5- methyl-2-phenyl-2H-1,2,3-triazol- 4-yl)methy]-4-oxo- [Example 49] | ≥ 1000 nM | – | –
Pyrimido[2,1-c][1,4]oxazine-2- carboxamide, 4,6,7,9-tetrahydro-3- hydroxy-9,9-dimethyl-N-[(5- methyl-3-phenyl-4- isoxazolyl)methy]-4-oxo- [Example 43] | ≥ 1000 nM | – | –
Pyrimido[2,1-c][1,4]oxazine-2- carboxamide, 4,6,7,9-tetrahydro-3- hydroxy-9,9-dimethyl-N-[[5- methyl-2-(trifluoromethyl)-3- furanyl]methy]-4-oxo- [Example 42] | 2 to 100 nM | – | 100 to 1000 nM
Pyrimido[2,1-c][1,4]oxazine-2- carboxamide, 4,6,7,9-tetrahydro-3- hydroxy-N-[2-(1H-indol-3- yl)ethyl]-9,9-dimethyl-4-oxo- [Example 57] | 100 to 1000 nM | – | –
Pyrimido[2,1-c][1,4]oxazine-2- carboxamide, 4,6,7,9-tetrahydro-3- hydroxy-N-[2-(5-hydroxy-1H- indol-3-yl)ethyl]-9,9-dimethyl-4- oxo- [Example 51] | ≥ 1000 nM | – | –
Pyrimido[2,1-c][1,4]oxazine-2- carboxamide, 4,6,7,9-tetrahydro-3- hydroxy-N-[3-(5-methoxy-1H- indol-3-yl)propyl]-9,9-dimethyl-4- oxo- [Example 52] | ≥ 1000 nM | – | –
Pyrimido[2,1-c][1,4]oxazine-2- carboxamide, 4,6,7,9-tetrahydro-3- hydroxy-N-[[3-(4-methoxyphenyl)- 5-isoxazolyl]methyl]-9,9-dimethyl- 4-oxo- [Example 48] | ≥ 1000 nM | – | –
Pyrimido[2,1-c][1,4]oxazine-2- carboxamide, N-(1,2-benzisoxazol- 3-ylmethyl)-4,6,7,9-tetrahydro-3- hydroxy-9,9-dimethyl-4-oxo- [Example 59] | 2 to 100 nM | – | 100 to 1000 nM
Pyrimido[2,1-c][1,4]oxazine-2- carboxamide, N-(2- benzofuranylmethyl)-4,6,7,9- tetrahydro-3-hydroxy-9,9- dimethyl-4-oxo- [Example 56] | 2 to 100 nM | – | 3 to 100 nM
Pyrimido[2,1-c][1,4]oxazine-2- carboxamide, N-(benzo[b]thien-3- ylmethyl)-4,6,7,9-tetrahydro-3- hydroxy-9,9-dimethyl-4-oxo- [Example 40] | 2 to 100 nM | – | 100 to 1000 nM

Compound | IC50 (HIV-integrase) | melting point | EC50 [1]
Pyrimido[2,1-c][1,4]oxazine-2- carboxamide, N-[(1,3-dimethyl- 1H-pyrazol-4-yl)methyl]-4,6,7,9- tetrahydro-3-hydroxy-9,9- dimethyl-4-oxo- [Example 61] | 100 to 1000 nM | – | –
Pyrimido[2,1-c][1,4]oxazine-2- carboxamide, N-[(1,3-diphenyl- 1H-pyrazol-4-yl)methyl]-4,6,7,9- tetrahydro-3-hydroxy-9,9- dimethyl-4-oxo- [Example 66] | 100 to 1000 nM | – | –
Pyrimido[2,1-c][1,4]oxazine-2- carboxamide, N-[(1-ethyl-1H- pyrazol-3-yl)methyl]-4,6,7,9- tetrahydro-3-hydroxy-9,9- dimethyl-4-oxo- [Example 67] | 2 to 100 nM | – | 100 to 1000 nM
Pyrimido[2,1-c][1,4]oxazine-2- carboxamide, N-[(1-ethyl-1H- pyrazol-5-yl)methyl]-4,6,7,9- tetrahydro-3-hydroxy-9,9- dimethyl-4-oxo- [Example 68] | ≥ 1000 nM | – | –
Pyrimido[2,1-c][1,4]oxazine-2- carboxamide, N-[(1-ethyl-3- methyl-1H-pyrazol-4-yl)methyl]- 4,6,7,9-tetrahydro-3-hydroxy-9,9- dimethyl-4-oxo- [Example 63] | 100 to 1000 nM | – | –
Pyrimido[2,1-c][1,4]oxazine-2- carboxamide, N-[(1-ethyl-3- methyl-1H-pyrazol-5-yl)methyl]- 4,6,7,9-tetrahydro-3-hydroxy-9,9- dimethyl-4-oxo- [Example 46] | 100 to 1000 nM | – | –
Pyrimido[2,1-c][1,4]oxazine-2- carboxamide, N-[(1-ethyl-5- methyl-1H-pyrazol-4-yl)methyl]- 4,6,7,9-tetrahydro-3-hydroxy-9,9- dimethyl-4-oxo- [Example 64] | 100 to 1000 nM | – | –
Pyrimido[2,1-c][1,4]oxazine-2- carboxamide, N-[(2,5-dimethyl-3- furanyl)methyl]-4,6,7,9- tetrahydro-3-hydroxy-9,9- dimethyl-4-oxo- [Example 44] | 2 to 100 nM | – | 3 to 100 nM
Pyrimido[2,1-c][1,4]oxazine-2- carboxamide, N-[(2-bromo-3- thienyl)methy]-4,6,7,9-tetrahydro- 3-hydroxy-9,9-dimethyl-4-oxo- [Example 41] | 2 to 100 nM | – | 100 to 1000 nM
Pyrimido[2,1-c][1,4]oxazine-2- carboxamide, N-[(4-bromo-1- ethyl-1H-pyrazol-5-yl)methyl]- 4,6,7,9-tetrahydro-3-hydroxy-9,9- dimethyl-4-oxo- [Example 73] | ≥ 1000 nM | – | –
Pyrimido[2,1-c][1,4]oxazine-2- carboxamide, N-[(4-chloro-1- ethyl-1H-pyrazol-3-yl)methyl]- 4,6,7,9-tetrahydro-3-hydroxy-9,9- dimethyl-4-oxo- [Example 70] | 2 to 100 nM | – | > 1000 nM
Pyrimido[2,1-c][1,4]oxazine-2- carboxamide, N-[(4-chloro-1- ethyl-1H-pyrazol-5-yl)methyl]- 4,6,7,9-tetrahydro-3-hydroxy-9,9- dimethyl-4-oxo- [Example 71] | 100 to 1000 nM | – | –
Pyrimido[2,1-c][1,4]oxazine-2- carboxamide, N-[(4-chloro-3- methyl-5-isoxazolyl)methyl]- 4,6,7,9-tetrahydro-3-hydroxy-9,9- dimethyl-4-oxo- [Example 54] | 100 to 1000 nM | – | –
Pyrimido[2,1-c][1,4]oxazine-2- carboxamide, N-[(5,6-dichloro- 1H-benzimidazol-2-yl)methyl]- 4,6,7,9-tetrahydro-3-hydroxy-9,9- dimethyl-4-oxo- [Example 50] | ≥ 1000 nM | – | –
Pyrimido[2,1-c][1,4]oxazine-2- carboxamide, N-[(5-chloro-1H- indol-2-yl)methyl]-4,6,7,9- tetrahydro-3-hydroxy-9,9- dimethyl-4-oxo- [Example 62] | 100 to 1000 nM | – | –
Pyrimido[2,1-c][1,4]oxazine-2- carboxamide, N-[[3-(4- chlorophenyl)-5- isoxazolyl]methyl]-4,6,7,9- tetrahydro-3-hydroxy-9,9- dimethyl-4-oxo- [Example 45] | ≥ 1000 nM | – | –
